{
  "source": "PubChem BioAssay (NCI)",
  "assay_in_all_cases": "NCI tumour cell line growth inhibition, 48 h",
  "key": {"SW-620 colon": {"tested_on": "SW-620 colon"}, "MDA-MB-231 breast": {"tested_on": "MDA-MB-231 breast"}, "EKVX NSCLC": {"tested_on": "EKVX NSCLC"}, "SN12C renal": {"tested_on": "SN12C renal"}, "NCI-H460 lung": {"tested_on": "NCI-H460 lung"}, "NCI-H23 lung": {"tested_on": "NCI-H23 lung"}, "SF-539 CNS": {"tested_on": "SF-539 CNS"}, "RXF 393 renal": {"tested_on": "RXF 393 renal"}, "BT-549 breast": {"tested_on": "BT-549 breast"}, "SF-295 CNS": {"tested_on": "SF-295 CNS"}, "ACHN renal": {"tested_on": "ACHN renal"}, "COLO 205 colon": {"tested_on": "COLO 205 colon"}, "NCI/ADR-RES ovarian": {"tested_on": "NCI/ADR-RES ovarian"}, "SK-MEL-28 melanoma": {"tested_on": "SK-MEL-28 melanoma"}, "SK-OV-3 ovarian": {"tested_on": "SK-OV-3 ovarian"}, "UACC-62 melanoma": {"tested_on": "UACC-62 melanoma"}, "M14 melanoma": {"tested_on": "M14 melanoma"}, "T-47D breast": {"tested_on": "T-47D breast"}, "SNB-19 CNS": {"tested_on": "SNB-19 CNS"}, "SNB-75 CNS": {"tested_on": "SNB-75 CNS"}, "A498 renal": {"tested_on": "A498 renal"}, "MALME-3M melanoma": {"tested_on": "MALME-3M melanoma"}, "HOP-62 NSCLC": {"tested_on": "HOP-62 NSCLC"}, "OVCAR-3 ovarian": {"tested_on": "OVCAR-3 ovarian"}, "MOLT-4 leukemia": {"tested_on": "MOLT-4 leukemia"}, "K-562 leukemia": {"tested_on": "K-562 leukemia"}, "NCI-H522 lung": {"tested_on": "NCI-H522 lung"}, "A549 NSCLC": {"tested_on": "A549 NSCLC"}, "OVCAR-8 ovarian": {"tested_on": "OVCAR-8 ovarian"}, "KM12 colon": {"tested_on": "KM12 colon"}},
  "note": "Where “and” joins values, the source holds several entries; their conditions need not be identical. Identical values can stand only once.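 Interpolation was linear, between the two tested concentrations surrounding the appropriate level; five concentrations were tested over 48 hours in 96-well plates. The concentration for 50% growth inhibition is given as GI50. TGI marks complete inhibition of growth.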",
  "data": [
    {"smiles": "CC1=C2O[C@]3(O)C=C2C(=C(O)C1=O)[C@@H]1O[C@H](CC[C@H](C)/C=C(\\C)C[C@@H](C)C[C@@H]3C)[C@H](C)[C@H](O)[C@H]1C", "values": [
      {"measurement": "TGI", "setting": "SW-620 colon", "value": 3470, "unit": "nM"},
      {"measurement": "GI50", "setting": "MDA-MB-231 breast", "value": 285, "unit": "nM"},
      {"measurement": "TGI", "setting": "MDA-MB-231 breast", "value": "352 nM and 830 nM"},
      {"measurement": "TGI", "setting": "EKVX NSCLC", "value": "939 nM and 910 nM"},
      {"measurement": "GI50", "setting": "SN12C renal", "value": 495, "unit": "nM"},
      {"measurement": "TGI", "setting": "SN12C renal", "value": "2150 nM and 1940 nM"},
      {"measurement": "GI50", "setting": "NCI-H460 lung", "value": 1420, "unit": "nM"},
      {"measurement": "TGI", "setting": "NCI-H460 lung", "value": 1820, "unit": "nM"},
      {"measurement": "GI50", "setting": "NCI-H23 lung", "value": 563, "unit": "nM"},
      {"measurement": "TGI", "setting": "NCI-H23 lung", "value": "1170 nM and 1880 nM"},
      {"measurement": "GI50", "setting": "SF-539 CNS", "value": 240, "unit": "nM"},
      {"measurement": "TGI", "setting": "SF-539 CNS", "value": "384 nM and 580 nM"},
      {"measurement": "TGI", "setting": "RXF 393 renal", "value": 434, "unit": "nM"},
      {"measurement": "GI50", "setting": "BT-549 breast", "value": 878, "unit": "nM"},
      {"measurement": "TGI", "setting": "BT-549 breast", "value": "863 nM and 2150 nM"},
      {"measurement": "GI50", "setting": "SF-295 CNS", "value": 1640, "unit": "nM"},
      {"measurement": "TGI", "setting": "SF-295 CNS", "value": "2300 nM and 3110 nM"},
      {"measurement": "GI50", "setting": "ACHN renal", "value": 182, "unit": "nM"},
      {"measurement": "TGI", "setting": "ACHN renal", "value": "239 nM and 323 nM"},
      {"measurement": "GI50", "setting": "COLO 205 colon", "value": 165, "unit": "nM"},
      {"measurement": "TGI", "setting": "COLO 205 colon", "value": "256 nM and 313 nM"},
      {"measurement": "GI50", "setting": "NCI/ADR-RES ovarian", "value": 559, "unit": "nM"},
      {"measurement": "TGI", "setting": "NCI/ADR-RES ovarian", "value": "1350 nM and 2680 nM"},
      {"measurement": "TGI", "setting": "SK-MEL-28 melanoma", "value": "662 nM and 588 nM"},
      {"measurement": "GI50", "setting": "SK-OV-3 ovarian", "value": 1720, "unit": "nM"},
      {"measurement": "TGI", "setting": "SK-OV-3 ovarian", "value": "2130 nM and 3110 nM"},
      {"measurement": "GI50", "setting": "UACC-62 melanoma", "value": 356, "unit": "nM"},
      {"measurement": "TGI", "setting": "UACC-62 melanoma", "value": "695 nM and 1160 nM"},
      {"measurement": "GI50", "setting": "M14 melanoma", "value": 220, "unit": "nM"},
      {"measurement": "TGI", "setting": "M14 melanoma", "value": "363 nM and 526 nM"},
      {"measurement": "GI50", "setting": "T-47D breast", "value": "105 nM and 184 nM"},
      {"measurement": "TGI", "setting": "T-47D breast", "value": "230 nM and 361 nM"},
      {"measurement": "GI50", "setting": "SNB-19 CNS", "value": 1580, "unit": "nM"},
      {"measurement": "TGI", "setting": "SNB-19 CNS", "value": "1980 nM and 3110 nM"},
      {"measurement": "GI50", "setting": "SNB-75 CNS", "value": 603, "unit": "nM"},
      {"measurement": "TGI", "setting": "SNB-75 CNS", "value": "897 nM and 1350 nM"},
      {"measurement": "GI50", "setting": "A498 renal", "value": 177, "unit": "nM"},
      {"measurement": "TGI", "setting": "A498 renal", "value": "694 nM and 2930 nM"},
      {"measurement": "TGI", "setting": "MALME-3M melanoma", "value": "480 nM and 334 nM"},
      {"measurement": "GI50", "setting": "HOP-62 NSCLC", "value": 1390, "unit": "nM"},
      {"measurement": "TGI", "setting": "HOP-62 NSCLC", "value": "709 nM and 3150 nM"},
      {"measurement": "GI50", "setting": "OVCAR-3 ovarian", "value": 187, "unit": "nM"},
      {"measurement": "TGI", "setting": "OVCAR-3 ovarian", "value": "355 nM and 394 nM"},
      {"measurement": "GI50", "setting": "MOLT-4 leukemia", "value": 174, "unit": "nM"},
      {"measurement": "TGI", "setting": "MOLT-4 leukemia", "value": "2340 nM and 688 nM"},
      {"measurement": "TGI", "setting": "K-562 leukemia", "value": 4870, "unit": "nM"},
      {"measurement": "TGI", "setting": "NCI-H522 lung", "value": 321, "unit": "nM"},
      {"measurement": "GI50", "setting": "A549 NSCLC", "value": 1610, "unit": "nM"},
      {"measurement": "TGI", "setting": "A549 NSCLC", "value": "2080 nM and 3390 nM"},
      {"measurement": "GI50", "setting": "OVCAR-8 ovarian", "value": "169 nM and 234 nM"},
      {"measurement": "TGI", "setting": "OVCAR-8 ovarian", "value": "472 nM and 597 nM"},
      {"measurement": "GI50", "setting": "KM12 colon", "value": 376, "unit": "nM"}
    ]}
  ]
}
